The source made the active and inactive calls. No cut-off for these calls is given here.
What was measured:
[1] = target: T1, NAD-dependent protein deacetylase sirtuin-1 (Homo sapiens) (UniProt Q96EB6); assay: Activation of SIRT1 (unknown origin) at 50 uM relative to control
T1 sequence (whole entry): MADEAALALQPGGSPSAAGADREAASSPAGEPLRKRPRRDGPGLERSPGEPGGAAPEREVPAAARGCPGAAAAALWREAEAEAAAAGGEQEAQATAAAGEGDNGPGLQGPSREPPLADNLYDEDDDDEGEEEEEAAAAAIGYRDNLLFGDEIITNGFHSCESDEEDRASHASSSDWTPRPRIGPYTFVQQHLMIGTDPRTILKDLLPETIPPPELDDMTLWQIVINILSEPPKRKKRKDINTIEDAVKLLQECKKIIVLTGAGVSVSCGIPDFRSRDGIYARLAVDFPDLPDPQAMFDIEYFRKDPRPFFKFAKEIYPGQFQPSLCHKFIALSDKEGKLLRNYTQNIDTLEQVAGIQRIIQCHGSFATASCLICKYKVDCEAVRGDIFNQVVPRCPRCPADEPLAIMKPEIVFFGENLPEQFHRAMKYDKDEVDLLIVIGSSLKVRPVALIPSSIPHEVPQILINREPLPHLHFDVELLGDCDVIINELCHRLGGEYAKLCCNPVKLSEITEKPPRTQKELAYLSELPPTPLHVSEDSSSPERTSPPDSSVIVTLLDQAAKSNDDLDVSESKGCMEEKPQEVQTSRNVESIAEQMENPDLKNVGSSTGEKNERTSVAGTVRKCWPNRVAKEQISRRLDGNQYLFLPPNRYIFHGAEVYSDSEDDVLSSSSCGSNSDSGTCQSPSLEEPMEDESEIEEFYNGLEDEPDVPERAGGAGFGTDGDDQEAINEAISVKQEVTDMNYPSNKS

[2] = target: T2, NAD-dependent protein deacetylase sirtuin-2 (Homo sapiens) (UniProt Q8IXJ6); assay: Inhibition of SIRT2 (unknown origin) at 50 uM relative to control
T2 sequence (whole entry): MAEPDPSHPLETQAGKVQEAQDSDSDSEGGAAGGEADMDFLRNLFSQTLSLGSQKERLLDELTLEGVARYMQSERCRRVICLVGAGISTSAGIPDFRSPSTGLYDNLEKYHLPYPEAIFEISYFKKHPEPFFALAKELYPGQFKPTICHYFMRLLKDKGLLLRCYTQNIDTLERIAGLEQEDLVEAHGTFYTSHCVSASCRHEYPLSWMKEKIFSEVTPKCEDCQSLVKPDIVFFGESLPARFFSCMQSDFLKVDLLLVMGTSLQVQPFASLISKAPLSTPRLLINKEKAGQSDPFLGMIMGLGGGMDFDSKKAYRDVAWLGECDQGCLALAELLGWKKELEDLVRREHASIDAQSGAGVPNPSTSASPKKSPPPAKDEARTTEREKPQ

[3] = Antioxidant activity of compound at 150 to 1000 uM by DPPH assay; assay type: functional; details: dose 150-1000 µM
[4] = Antioxidant activity of compound at 500 uM by DPPH assay relative to control; assay type: functional
[5] = target: T3, NAD-dependent protein deacetylase sirtuin-2 (Homo sapiens, UniProt Q8IXJ6); assay: Inhibition of SIRT2 (unknown origin)
T3 sequence (Q8IXJ6 whole entry): T2 sequence (whole entry)

[6] = target: T4, NAD-dependent protein deacetylase sirtuin-1 (Homo sapiens, UniProt Q96EB6); assay: Activation of N-terminal His-tagged recombinant human SIRT1 (193 to end residues) expressed in baculovirus infected Sf9 insect cells incubated for 15 to 45 mins by luminescence based assay
T4 sequence (Q96EB6 whole entry): T1 sequence (whole entry)

[7] = target: T5, NAD-dependent protein deacetylase sirtuin-3, mitochondrial (Homo sapiens, UniProt Q9NTG7); assay: Inhibition of AMC-conjugated recombinant human SIRT3 ( 317 to 320 residues) using […] substrate incubated for 45 mins by fluorescence based assay
T5 sequence (Q9NTG7 whole entry): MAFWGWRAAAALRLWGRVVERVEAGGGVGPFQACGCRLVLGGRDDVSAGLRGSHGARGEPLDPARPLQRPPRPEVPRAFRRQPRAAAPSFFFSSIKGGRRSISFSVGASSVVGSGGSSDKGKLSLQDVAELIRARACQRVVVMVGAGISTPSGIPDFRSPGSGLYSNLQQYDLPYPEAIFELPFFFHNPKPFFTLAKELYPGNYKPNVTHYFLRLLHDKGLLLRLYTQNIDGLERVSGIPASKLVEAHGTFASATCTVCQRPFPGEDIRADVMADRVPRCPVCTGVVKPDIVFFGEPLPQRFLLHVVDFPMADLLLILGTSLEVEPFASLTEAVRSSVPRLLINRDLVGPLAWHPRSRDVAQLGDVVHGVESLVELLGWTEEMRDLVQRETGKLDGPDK

[8] = target: T4, NAD-dependent protein deacetylase sirtuin-1; assay: Inhibition of AMC-conjugated recombinant human SIRT1 (379 to 382 residues) using […] substrate incubated for 45 mins by fluorescence based assay

In the case of `COc1ccccc1CCNCc1ccc2oc3c(Cl)cccc3c(=O)c2c1`, the Activity [1] is reported as -22.1%, the inhibition [2] is reported as 93.2% and the Activity [3] is reported as “inactive”.
For `COc1ccccc1N1CCN(Cc2ccc3oc4c(Cl)cccc4c(=O)c3c2)CC1`, the Activity [1] was -17.1%, the inhibition [2] was 49.5% and the Activity [3] was “inactive”.
Work on `COc1cccc(N2CCN(Cc3ccc4oc5c(Cl)cccc5c(=O)c4c3)CC2)c1` yielded an Activity [1] of -117%, an inhibition [2] of 48.5% and an Activity [4] of 17.9%. For the same molecule, the Activity [3] was “inactive”.
Molecule `COc1ccc(OC)c(CN2CCN(Cc3ccc4oc5c(Cl)cccc5c(=O)c4c3)CC2)c1` has an Activity [1] of -12.4% and an inhibition [2] of 55.9%.
Molecule `Cc1ccc(C(=O)Nc2ccc(S(=O)(=O)O)c3cc(S(=O)(=O)O)cc(S(=O)(=O)O)c23)cc1NC(=O)c1cccc(NC(=O)Nc2cccc(C(=O)Nc3cc(C(=O)Nc4ccc(S(=O)(=O)O)c5cc(S(=O)(=O)O)cc(S(=O)(=O)O)c45)ccc3C)c2)c1` [SURAMIN] has an IC50 [5] of 24 µM.
`CC(C)=CCc1c(O)c(CC=C(C)C)c2oc3c(O)ccc(O)c3c(=O)c2c1O` [GARTANIN] showed an EC50 [6] of 1.79 µM.
For `COc1ccc(CNCc2ccc3oc4c(Cl)cccc4c(=O)c3c2)cc1OC`, the Activity [1] was -19.5%, the inhibition [2] was 82.7% and the Activity [3] was “inactive”.
For `CC(C)=CCc1c(O)cc2oc3cc(O)c(O)c(CC=C(C)C)c3c(=O)c2c1O`, the IC50 [7] was 26.8 µM and the IC50 [8] was 22.4 µM.
With `COc1ccccc1CNCc1ccc2oc3c(Cl)cccc3c(=O)c2c1` the Activity [1] was -10.3%, the inhibition [2] was 82.1% and the Activity [3] was “inactive”.
In the case of `Oc1ccc(/C=C/c2cc(O)cc(O)c2)cc1`, the Activity ([1]; filed as activator) is reported as 96.6% and the inhibition [2] is reported as 83%.

— ChEMBL document CHEMBL5625260, “Novel xanthone derivatives as potent sirtuin 2 inhibitors” (Bioorg Med Chem Lett, 2024)
